In patent publication US5877210A, “Phosphotyrosine phosphatase inhibitors or phosphotyrosine kinase activators for controlling cellular proliferation” (priority 1995, dated 1999):
Entries after “also recorded” stand apart in the source; their conditions may differ.

Columns and labels:
PP2A = biological target: T1, PP2A (Homo sapiens, UniProt P67775); test: Serine/threonine phosphatase PP2A inhibition; format: biochemical; conditions: vs CD45 and PTP1B
T1 construct: purchased Upstate Biotechnology, Lake Placid, N.Y
T1 sequence (P67775 whole entry): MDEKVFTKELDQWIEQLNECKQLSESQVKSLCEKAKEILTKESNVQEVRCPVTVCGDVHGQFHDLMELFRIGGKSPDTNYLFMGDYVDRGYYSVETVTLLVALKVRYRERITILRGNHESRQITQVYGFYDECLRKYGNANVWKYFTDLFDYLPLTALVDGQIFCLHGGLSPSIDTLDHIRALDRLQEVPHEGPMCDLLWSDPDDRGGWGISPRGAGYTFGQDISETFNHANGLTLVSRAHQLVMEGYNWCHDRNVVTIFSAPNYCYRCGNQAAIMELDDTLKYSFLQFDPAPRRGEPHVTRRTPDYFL

HL60 = test: Apoptosis: DNA fragmentation on agarose gel; format: cell-based, human; conditions: dose dependent
Method: (§1) For these experiments, cell samples (2×10^6 cells) were centrifuged at 200× g, the media removed by aspiration and the cell pellets stored at -70° C. until processing. Cell pellets were resuspended in 300 μl digestion buffer (100 mM NaCl, 10 mM Tris-HCl, pH 8.0, 25 mM EDTA, 0.5% SDS, 0.1 mg/ml protease K) and incubated for 12 hours at 50° C. DNase-free ribonuclease (5 μg) in 200 μl TE buffer (10 mM Tris-HCl, pH 7.5, 1 mM EDTA) was added to each sample followed by incubation for 2 hours at 37° C. DNA was then extracted once with phenol:chloroform, once with chloroform and then precipitated with 0.5 volumes of ammonium acetate and 2 volumes of ethanol at -70° C. for 12 hours. The precipitated DNA was resuspended in 200 μl TE buffer and quantitated by absorbance at 260 nanometers. The DNA (15 μg) was applied to a 1.3% agarose gel in TBE buffer (89 mM Tris base, 89 mM boric acid, 2 mM EDTA) resolved at 20 mA constant current and the DNA was visualized by staining with ethidium bromide. Fragmented DNA due to apoptosis appeared as a ladder of bands on the gel.

[1] = tested on: Ramos B cell lymphoma cells; test: Apoptosis: DNA fragmentation on agarose gel; format: cell-based, human; conditions: 10 μM, by 48 hours
Method: as §1

CEM = test: Apoptosis: DNA fragmentation on agarose gel; format: cell-based, human
Method: as §1

Jurkat = test: Apoptosis: DNA fragmentation on agarose gel; format: cell-based, human
Method: as §1

[2] = tested on: PHA-induced T cell blasts; test: Ca2+ signaling in PHA T cell blasts; format: cell-based, human
Method: (§2) Ca^2+ responses were measured using indo-1 (Molecular Probes, Eugene, Oreg.) and a model 50 HH/2150 flow cytometer (Ortho, Westwood, Mass.) as previously described (P. S. Rabinovitch et al., J. Immunol. 137:952-961 (1986)). The histograms were analyzed by programs (Cicero, Cytomation Inc., Ft. Collins, Colo.) that calculate the mean indo-1 violet/blue fluorescence ratio versus time. There are 100 data points on the X (time) axis for all flow cytometric data.
In the experiments shown in FIG. 25, human PHA-induced T cell blasts were treated overnight with the indicated concentrations of BMLOV. In Panel A, the baseline level of intracellular free Ca^2+ ([Ca^2+ ]i) was established for 1 min, and then the cells were treated with biotinylated anti-CD3 mAb (G19-4). After 5 min avidin was added (gap in the trace) to cross-link the antibody. In Panel B, assays were performed as in Panel A, but in the presence of 5 mM EGTA. […] In the experiments shown in FIG. 26, cells were treated 16 h with BMLOV and then stimulated with anti-CD3 mAb G19-4 for 5 min. Cells were then washed and resuspended in fresh media at equal concentrations of BMLOV at 37° C. Cells were then harvested and lysed at times following the initiation of CD3 stimulation as indicated. Antibody binding in immunoblots was detected by ECL.

Ramos B cells = test: Ca2+ signaling in Ramos B cells; format: cell-based, human
Method: as §2
In the experiments shown in FIG. 22, Ramos B cells were treated overnight with the indicated concentrations of BMLOV. The baseline level of intracellular free Ca^2+ ([Ca^2+ ]i) was established for 1 min, and then the cells were treated with anti-human IgM F(ab')2 (α-μ). The gap in the trace reflects the addition of α-μ. An acute Ca^2+ response to the addition of BMLOV to the Ramos cells was not observed, in contrast to the rapid elevation of Ca^2+ observed following treatment with pervanadate or H2 O2 (G. L. Schieven et al., Blood 82:1212-1220 (1993)); G. L. Schieven et al., J. Biol. Chem. 268:16688-16692 (1993)).

normal tonsillar B cells = test: Normal tonsillar B cell proliferation; format: cell-based
Text: BMLOV can inhibit normal tonsillar B cell proliferation driven by stimulation of CD40 via either anti-CD40 antibody or gp39 ligand plus either anti-CD20 antibody or phorbol 12-myristate 13-acetate (PMA). […] Variations between the individuals from which the tonsils were derived could account for the differences between these experiments.

[3] = tested on: i.p. M109 murine lung carcinoma; test: In vivo antitumor test, M109; conditions: for Max. % T/C: qd 1→5, ip
Method: The compound pV(phen) was tested for its antitumor activity in vivo. A summary of the antitumor test results is shown below in Table 13. In the i.p. M109 murine lung carcinoma model (Experiment No. 330; Table 13), consecutive daily i.p. injections each day from day 1 to 5 were effective in achieving an active result. […] A maximum T/C of 143%, consistent with the first result, was obtained.

[4] = tested on: REH, Ramos, CEM, Jurkat, HL-60, and THP-1; test: [3H]thymidine incorporation, cell line panel (FIG. 17); format: cell-based; conditions: 5 μM pV(phen), 5 days
Method: Similar results are shown in FIG. 17 for the cell lines REH, Ramos, CEM, Jurkat, HL-60, and THP-1. Cells were treated 5 days with the amount of inhibitor indicated and [^3 H]-thymidine incorporation was then measured to determine proliferation. The percent inhibition was calculated relative to untreated controls. Results are shown for three concentrations of BMLOV (5 μM, 10 μM, and 25 μM and 5 μM of pV(phen)).

Structure (SMILES)	concentration for similar inhibition relative to phosphotyrosine phosphatases (PP2A)	induction of apoptosis (DNA fragmentation) (HL60)	induction of apoptosis (DNA fragmentation) [1]	induction of apoptosis (DNA fragmentation) (CEM)	induction of apoptosis (DNA fragmentation) (Jurkat)	Ca2+ signals from crosslinking CD3 alone or with CD2 and CD4 ([2]; 25-50 μM BMLOV)	basal calcium levels ([2]; 50 to 100 μM BMLOV, fifteen hours)	effect on CD28 Ca2+ signals ([2]; PHA T cell blasts)	Ca2+ signaling in T cells ([2]; anti-CD3 cross-linking, BMLOV overnight (25 μM elsewhere in the source))	Ca2+ signals induced by cross-linking sIgM (Ramos B cells; 25 μM BMLOV, overnight)	UV-induced Ca2+ signals (Ramos B cells; Ramos B cells)	basal Ca2+ levels (Ramos B cells; Ramos B cells, BMLOV 16 h)	effect on proliferation (normal tonsillar B cells; first experiment (FIG. 3), 0.1 to 10 μM BMLOV)	effect on proliferation (normal tonsillar B cells; second experiment (FIG. 4), 5 μM BMLOV)	effect on proliferation (normal tonsillar B cells; second experiment (FIG. 4), 50 μM BMLOV)	Max. % T/C ([3]; Expt. 330, 12 mg/kg/inj)	Max. % T/C ([3]; Expt. 333, 12 mg/kg/inj (MTD reached))	cumulative MTD ([3]; last M109 experiment)	inhibition of proliferation, in words [4]
Cc1occc(=O)c1[O-].Cc1occc(=O)c1[O-].[O]=[V+2] [BMLOV, Bis(maltolato)oxovanadium (IV)]	over 100 fold	Apoptosis was also observed to be induced; also recorded: DNA fragmentation was also induced	induced apoptosis; also recorded: induced extensive DNA fragmentation	apoptosis was not observed; also recorded: DNA fragmentation was not observed	apoptosis was not observed; also recorded: DNA fragmentation was not observed	prolong Ca^2+ signals	markedly enhance basal calcium levels	marked inhibition	detectably stimulated Ca^2+ signaling; also recorded: increased and prolonged	Complete inhibition	greatly increased and prolonged UV-induced Ca^2+ signals	elevation of basal Ca^2+ levels	little effect on proliferation	substantial inhibition of proliferation	completely blocked proliferation	–	–	–	–
[Na+].[O]=[V-]12([O][O]1)[O][O]2.c1cnc2c(c1)ccc1cccnc12 [pV(phen), sodium (1,10-phenanthroline) oxodiperoxovanadium (V)]	–	–	–	–	–	–	–	–	–	–	–	–	–	–	–	144%	143%	60 mg/kg	inhibits all cell types studied
